In patent US8431597B2, “Benzimidazole derivatives” (Pfizer Inc., priority 2007, dated 2013):
Structures can show the parent of a compound that is named as a salt.

Target: T1, Smoothened (SMO) (Mus musculus, UniProt P56726)
T1 construct: C3H10T1/2 cells (ATCC #CCL-226) were split and seeded; endogenous in cells; host or cells: C3H10T1/2 (ATCC #CCL-226)
Assay: Smoothened (SMO)/Sonic Hedgehog (SHh) Transient Transcriptional Activation Assay (Gli-luciferase reporter in C3H10T1/2 cells)
Format: cell-based, murine
Details: C3H 10T1/2, 2 μM compound; transfected C3H10T1/2 cells, recombinant human SHh 250 ng/mL, 20 hours, luciferase readout; read-out: SMO CELL % INHIBITION @ 2 μM
Description: As noted above, the compounds of the invention are useful as inhibitors of SMO. • Methods for determining the in vitro activity of these compounds are described below: Smoothened (SMO)/Sonic Hedgehog (SHh) Transient Transcriptional Activation Assay
On Day 1, 2×10^6 C3H10T1/2 cells (ATCC #CCL-226) were split and seeded in 12 mL of growth medium Basal Medium Eagle (BME, Invitrogen #21010-046) supplemented with 2 mM L-glutamine (Invitrogen #25030-081), 0.1 units/mL penicillin and 0.1 μg/mL streptomycin (Invitrogen #15140-122), and 10% Fetal Bovine Serum (FBS, Invitrogen #16140-071) in a T-75 flask (Costar #3376). They were allowed to attach for 4 hours at 37° C., 5% CO2. The cells were then transfected using Fugene 6 (Roch #11 814 443 001) in the following reaction: 48 μL Fugene 6 and 745 μL Opti-MEM (Invitrogen #31985-070) were mixed and allowed to sit at room temperature for 5 minutes. 8 μg of pGL4.14/mGli(CS) DNA (10× murine Gli response elements and minimal CS promoter) and 0.5 μg of pEGFP DNA (Clontech) were added, gently mixed and incubated at room temperature for 20 minutes. This entire transfection mix was then added to the T-75 flask containing the cells. The cells were incubated at 37° C., 5% CO2 for 18-24 hours.
On Day 2, the transfected cells were trypsinized and seeded into white 96 well plates (Costar #3917) in 100 μL/well of growth medium at a concentration of 20,000 cells/well. The cells were allowed to recover for 4 hours before adding serum starvation medium Dulbecco's Modified Eagle Medium (DMEM, Invitrogen #21063-029) supplemented with 2 mM L-glutamine, 0.1 units/mL penicillin and 0.1 μg/mL streptomycin, and 0.5% Calf Serum (CS, Invitrogen #26170-043). The growth media was aspirated off, and the cells were rinsed with 100 μL of starvation media. 95 μL of starvation media was then added to each well. The cells were incubated for 20 hours at 37° C., 5% CO2.
On Day 3, cells were dosed with test compounds at a final concentration ranging from 2 μM to 2 nM. Immediately after dosing cells with compounds, recombinant human sonic hedgehog (SHh, R&D Systems #1845-SH) was add to a final concentration of 250 ng/mL. A 25 μg vial of SHh was reconstituted with 250 μL PBS/0.1% BSA to give a 100 ng/μL working stock. This working stock was then diluted 1:20 in starvation media. The transfected cells were incubated with compounds and SHh for 20 hours at 37° C., 5% CO2.
Luciferase assays were conducted on Day 4 using Dual-Glo Luciferase assay system (Promega #E2940) according to Promega's protocol. Briefly, Dual-Glo luciferase reagent was made up and 100 μL were added to each well of the 96 well plate containing media. Plates were shaken at room temperature for 10 minutes, and then read on TopCount (Perkin-Elmer). The luminescence was recorded.

T1 sequence (P56726 33-793): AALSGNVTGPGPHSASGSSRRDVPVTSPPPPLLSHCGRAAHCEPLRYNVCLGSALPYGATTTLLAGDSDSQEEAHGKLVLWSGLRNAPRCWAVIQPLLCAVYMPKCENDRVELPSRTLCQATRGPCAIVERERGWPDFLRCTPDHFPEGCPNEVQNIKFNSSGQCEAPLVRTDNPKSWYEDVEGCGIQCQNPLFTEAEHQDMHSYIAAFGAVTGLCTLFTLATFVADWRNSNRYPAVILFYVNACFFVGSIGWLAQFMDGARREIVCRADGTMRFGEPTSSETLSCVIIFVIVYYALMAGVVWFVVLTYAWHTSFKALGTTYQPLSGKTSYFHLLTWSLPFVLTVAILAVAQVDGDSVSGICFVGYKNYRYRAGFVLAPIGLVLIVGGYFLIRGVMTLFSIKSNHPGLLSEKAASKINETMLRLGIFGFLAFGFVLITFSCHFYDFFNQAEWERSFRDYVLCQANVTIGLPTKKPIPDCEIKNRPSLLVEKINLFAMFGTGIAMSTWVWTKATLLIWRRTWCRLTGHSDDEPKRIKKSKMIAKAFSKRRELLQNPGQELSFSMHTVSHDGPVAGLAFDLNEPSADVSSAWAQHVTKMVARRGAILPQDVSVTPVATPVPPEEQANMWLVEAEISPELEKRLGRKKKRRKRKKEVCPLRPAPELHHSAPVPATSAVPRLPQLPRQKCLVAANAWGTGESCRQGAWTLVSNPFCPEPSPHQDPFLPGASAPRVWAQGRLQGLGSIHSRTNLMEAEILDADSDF

SMILES | inhibition at 2 µM [%]
Cc1ccc2nc([C@@H]3C[C@@H](NC(=O)Nc4ccc(Cl)c(C(F)(F)F)c4)CN3C(C)C)[nH]c2c1 [Example 23, 1-[4-chloro-3-(trifluoromethyl)phenyl]-3-[(3R,5S)-1-isopropyl-5-(6-methyl-1H-benzimidazol-2-yl)pyrrolidin-3-yl]urea] | 100
O=C(Nc1ccc(Cl)c(C(F)(F)F)c1)N[C@@H]1CN[C@H](c2nc3ccc(F)cc3[nH]2)C1 [Example 13, 1-[4-chloro-3-(trifluoromethyl)phenyl]-3-[(3S,5S)-5-(6-fluoro-1H-benzimidazol-2-yl)pyrrolidin-3-yl]urea] | 84.2
CN1CC[C@@H](NC(=O)c2cc3c(cc2Cl)OCCO3)C[C@@H]1c1nc2cc(Cl)ccc2[nH]1 [Example 148, 7-chloro-N-[(2R,4R)-2-(5-chloro-1H-benzimidazol-2-yl)-1-methylpiperidin-4-yl]-2,3-dihydro-1,4-benzodioxine-6-carboxamide triflouroacetate] | 95
CCN1CC[C@@H](NC(=O)Nc2ccc(C#N)cc2)C[C@@H]1c1nc2ccccc2[nH]1 [Example 46, 1-[(2R,4R)-2-(1H-benzimidazol-2-yl)-1-ethylpiperidin-4-yl]-3-(4-cyanophenyl)urea] | 105
CN1CC[C@@H](NC(=O)Nc2ccc(C(F)(F)F)cc2)C[C@@H]1c1nc2ccccc2[nH]1 [Example 18, 1-[(2R,4R)-2-(1H-benzimidazol-2-yl)-1-methylpiperidin-4-yl]-3-[4-(trifluoromethyl)phenyl]urea hydrochloride] | 110
Cc1ccc2nc([C@@H]3C[C@@H](NC(=O)Nc4ccc(Cl)c(C(F)(F)F)c4)CN3C)[nH]c2c1 [Example 17, 1-[4-chloro-3-(trifluoromethyl)phenyl]-3-[(3R,5S)-1-methyl-5-(6-methyl-1H-benzimidazol-2-yl)pyrrolidin-3-yl]urea] | 63.2
Cc1ccc(NC(=O)N[C@@H]2CCN(C3CCC3)[C@@H](c3nc4ccccc4[nH]3)C2)cn1 [Example 150, 1-[(2R,4R)-2-(1H-benzimidazol-2-yl)-1-cyclobutyl-piperidin-4-yl]-3-(6-methylpyridin-3-yl)urea triflouroacetate] | 106
CN1CC[C@@H](NC(=O)Cc2ccc3c(c2)CCO3)C[C@@H]1c1nc2ccccc2[nH]1 [Example 116, N-[(2R,4R)-2-(1H-benzimidazol-2-yl)-1-methylpiperidin-4-yl]-2-(2,3-dihydro-1-benzofuran-5-yl)acetamide trifluoroacetate] | 68.2
CN1CC[C@H](NC(=O)c2ccc3c(c2)OCCO3)C[C@@H]1c1nc2ccccc2[nH]1 [Example 94, N-[(2R,4S)-2-(1H-benzimidazol-2-yl)-1-methylpiperidin-4-yl]-2,3-dihydro-1,4-benzodioxine-6-carboxamide hydrochloride] | 79.7
CN1CC[C@@H](NC(=O)NC2CCCC2)C[C@@H]1c1nc2ccccc2[nH]1 [Example 85, 1-[(2R,4R)-2-(1H-benzimidazol-2-yl)-1-methylpiperidin-4-yl]-3-cyclopentylurea hydrochloride] | 93.1
CN1CC[C@@H](NC(=O)c2cc(-c3ccncc3)n[nH]2)C[C@@H]1c1nc2ccccc2[nH]1 [Example 74, N-[(2R,4R)-2-(1H-benzimidazol-2-yl)-1-methylpiperidin-4-yl]-3-pyridin-4-yl-1H-pyrazole-5-carboxamide hydrochloride] | 101
CN1C[C@@H](NC(=O)c2ccc3c(c2)OCCO3)C[C@H]1c1nc2ccccc2[nH]1 [Example 21, N-[(3S,5S)-5-(1H-benzimidazol-2-yl)-1-methylpyrrolidin-3-yl]-2,3-dihydro-1,4-benzodioxine-6-carboxamide] | 61.8
CN1CC[C@@H](NC(=O)c2cnn3ccccc23)C[C@@H]1c1nc2ccccc2[nH]1 [Example 115, N-[(2R,4R)-2-(1H-benzimidazol-2-yl)-1-methylpiperidin-4-yl]pyrazolo[1,5-a]pyridine-3-carboxamide trifluoroacetate] | 69.6
Cc1ccc2nc([C@@H]3C[C@H](NC(=O)Nc4ccc(Cl)c(C(F)(F)F)c4)CN3C)[nH]c2c1 [Example 22, 1-[4-chloro-3-(trifluoromethyl)phenyl]-3-[(3S,5S)-1-methyl-5-(6-methyl-1H-benzimidazol-2-yl)pyrrolidin-3-yl]urea] | 102
CN1CC[C@@H](NC(=O)Nc2ccccc2)C[C@@H]1c1nc2ccccc2[nH]1 [Example 75, 1-[(2R,4R)-2-(1H-benzimidazol-2-yl)-1-methylpiperidin-4-yl]-3-phenylurea hydrochloride] | 100
N#Cc1ccc(NC(=O)N[C@@H]2CCN(Cc3ccccc3)[C@@H](c3nc4ccccc4[nH]3)C2)cc1 [Example 61, 1-[(2R,4R)-2-(1H-benzimidazol-2-yl)-1-benzylpiperidin-4-yl]-3-(4-cyanophenyl)urea] | 99.5

Continued, values first:

inhibition at 2 µM [%] | SMILES
105 | Cc1ccc(NC(=O)N[C@@H]2CCN(C)[C@@H](c3nc4ccccc4[nH]3)C2)c(C)n1 [Example 48, 1-[(2R,4R)-2-(1H-benzimidazol-2-yl)-1-methylpiperidin-4-yl]-3-(2,6-dimethylpyridin-3-yl)urea hydrochloride]
102 | COc1ccc(NC(=O)N[C@@H]2CCN(C)[C@@H](c3nc4cc(C)ccc4[nH]3)C2)cn1 [Example 137, 1-{6-methoxypyridin-3-yl)-3-[(2R.4R)-1-methyl-2-(5-methyl-1H-benzimidazol-2-yl)piperidin-4-yl]urea hydrochloride]
105 | CN1CC[C@@H](NC(=O)Nc2ccc(C#N)nc2)C[C@@H]1c1nc2ccccc2[nH]1 [Example 54, 1-[(2R,4R)-2-(1H-benzimidazol-2-yl)-1-methylpiperidin-4-yl]-3-(6-cyanopyridin-3-yl)urea hydrochloride]
106 | Cc1ccc2[nH]c([C@H]3C[C@H](NC(=O)Nc4ccc(C)nc4)CCN3C)nc2c1 [Example 130, 1-[(2R,4R)-1-methyl-2-(5-methyl-1H-benzimidazol-2-yl)piperidin-4-yl]-3-(6-methylpyridin-3-yl)urea hydrochloride]
106 | COc1ccc2[nH]c([C@H]3C[C@H](NC(=O)Nc4ccc(OC)nc4)CCN3C)nc2c1 [Example 136, 1-[(2R,4R)-2-(5-methoxy-1H-benzimidazol-2-yl)-1-methylpiperidin-4-y)]-3-(6-methoxypyridin-3-yl)urea hydrochloride]
105 | Cc1ccc(NC(=O)N[C@@H]2CCN(C)[C@@H](c3nc4cc(C)c(C)cc4[nH]3)C2)cn1 [Example 131, 1-[(2R(4R)-2-(5,6-dimethyl-1H-benzimidazol-2-yl)-1-methylpiperidin-4-yl]-3-(6-methylpyridin-3-yl)urea hydrochloride]
108 | COc1ccc2[nH]c([C@H]3C[C@H](NC(=O)Nc4ccc(C#N)cc4)CCN3C)nc2c1 [Example 29, 1-(4-cyanophenyl)-3-[(2R,4R)-2-(5-methoxy-1H-benzimidazol-2-yl)-1-methylpiperidin-4-yl]urea hydrochloride]
103 | CN1CC[C@@H](NC(=O)Nc2ccc(C(F)(F)F)nc2)C[C@@H]1c1nc2ccccc2[nH]1 [Example 66, 1-[(2R,4R)-2-(1H-benzimidazol-2-yl)-1-methylpiperidin-4-y1]-3-[6-(trifluoromethyl)pyridin-3-yl]urea hydrochloride]
100 | Cc1cc2nc([C@H]3C[C@H](NC(=O)Nc4ccc(C(F)(F)F)nc4)CCN3C)[nH]c2cc1C [Example 77, 1-[(2R,4R)-2-(5,6-dimethyl-1H-benzimidazol-2-yl)-1-methylpiperidin-4-yl]-3-[6-(trifluoromethyl)pyridin-3-yl]urea hydrochloride]
101 | Cc1cc(NC(=O)N[C@@H]2CCN(C)[C@@H](c3nc4ccccc4[nH]3)C2)cnc1C [Example 71, 1-[(2R,4R)-2-(1H-benzimidazol-2-yl)-1-methylpiperidin-4-yl]-3-(5,6-dimethylpyridin-3-yl)urea hydrochloride]
